# Laboratory results taken from patent publication US10954269B2, “Anti-inflammatory tripeptides” (Dr. August Wolff Gmbh & Co. KG Arzneimittel, priority 2013, dated 2021).
# Columns and labels:
# Conditions in all cases: substance 10^−9M
# primary human T-cells = assay: Cytokine secretion on protein level in activated primary human T-cells (13-plex FACS / Luminex, supernatant); assay type: cell-based
# Outline: (§1)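 Cytokine protein in supernatant is read by multiplex FACS or Luminex. Tripeptide-treated HaCaT cells or blood-derived human T-cells are stimulated beforehand with PMA/Ionomycin or IFN-γ. The most relevant analytes are IL-1, IL-2, IL-6, IL-12p70, IL-17, IFN-γ and TNF-α, sampled 48 h and 72 h after stimulation.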
# [1] = system: human keratinocyte cell line (HaCaT); assay: Cytokine secretion on protein level in activated human keratinocyte cell line HaCaT (13-plex FACS / Luminex, supernatant); assay type: cell-based
# Outline: as §1
# primary murine T-cells = assay: Cytokine secretion on protein level in activated primary murine T-cells (13-plex FACS / Luminex, supernatant); assay type: cell-based, C57BL/6 mice
# Outline: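 T-cells from secondary lymphatic organs of naïve C57BL/6 mice, stimulated with PMA/Ionomycin or IFN-γ; supernatant cytokines measured by 13-plex FACS 48 h and 72 h after stimulation. In another run, PMA/Ionomycin-stimulated cells received compounds at 10^−7, 10^−9 and 10^−11 M, with IFN-γ, IL-17 and IL-10 measured by Luminex.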
# [2] = primary human T-cells stimulated with IFN-γ
# [3] = primary human T-cells stimulated with PBS
# [4] = primary human T-cells stimulated with PMA/Ionomycin
# [5] = HaCaT stimulated with PMA/Ionomycin
# [6] = primary murine T-cells stimulated with IFN-γ
# [7] = primary murine T-cells stimulated with PBS
# [8] = primary murine T-cells stimulated with PMA/Ionomycin
substance,measurement,setting,value
"N^α,N^α-dimethyl-(L)-Lys-(D)-Pro-N^α-methyl-(L)-Thr-NH2 [Example 4]",IL-1 cytokine concentration,primary human T-cells; [2],366.09 pg/mL
same,IL-2 cytokine concentration,primary human T-cells; [2],326.11 pg/mL
same,IL-4 cytokine concentration,primary human T-cells; [2],176.6 pg/mL
same,IL-5 cytokine concentration,primary human T-cells; [2],27.34 pg/mL
same,IL-6 cytokine concentration,primary human T-cells; [2],180.43 pg/mL
same,IL-9 cytokine concentration,primary human T-cells; [2],10.84 pg/mL
same,IL-10 cytokine concentration,primary human T-cells; [2],75.72 pg/mL
same,IL-12p70 cytokine concentration,primary human T-cells; [2],0 pg/mL
same,IL-13 cytokine concentration,primary human T-cells; [2],212.64 pg/mL
same,IL-17 cytokine concentration,primary human T-cells; [2],162.73 pg/mL
same,IL-22 cytokine concentration,primary human T-cells; [2],0 pg/mL
same,TNF-α cytokine concentration,primary human T-cells; [2],103.24 pg/mL
same,IL-1 cytokine concentration,primary human T-cells; [3],122.89 pg/mL
same,IL-2 cytokine concentration,primary human T-cells; [3],0 pg/mL
same,IL-4 cytokine concentration,primary human T-cells; [3],60.49 pg/mL
same,IL-5 cytokine concentration,primary human T-cells; [3],0 pg/mL
same,IL-6 cytokine concentration,primary human T-cells; [3],226.2 pg/mL
same,IL-9 cytokine concentration,primary human T-cells; [3],3.71 pg/mL
same,IL-10 cytokine concentration,primary human T-cells; [3],0 pg/mL
same,IL-12p70 cytokine concentration,primary human T-cells; [3],0 pg/mL
same,IL-13 cytokine concentration,primary human T-cells; [3],0 pg/mL
same,IL-17 cytokine concentration,primary human T-cells; [3],0 pg/mL
same,IL-22 cytokine concentration,primary human T-cells; [3],0 pg/mL
same,INF-α cytokine concentration,primary human T-cells; [3],0 pg/mL
same,TNF-α cytokine concentration,primary human T-cells; [3],0 pg/mL
same,IL-1 cytokine concentration,primary human T-cells; [4],689.99 pg/mL
same,IL-2 cytokine concentration,primary human T-cells; [4],1227.93 pg/mL
same,IL-4 cytokine concentration,primary human T-cells; [4],239.37 pg/mL
same,IL-5 cytokine concentration,primary human T-cells; [4],473.23 pg/mL
same,IL-6 cytokine concentration,primary human T-cells; [4],1280 pg/mL
same,IL-9 cytokine concentration,primary human T-cells; [4],239.43 pg/mL
same,IL-10 cytokine concentration,primary human T-cells; [4],417.95 pg/mL
same,IL-12p70 cytokine concentration,primary human T-cells; [4],0 pg/mL
same,IL-13 cytokine concentration,primary human T-cells; [4],1081.09 pg/mL
same,IL-17 cytokine concentration,primary human T-cells; [4],1356.78 pg/mL
same,IL-22 cytokine concentration,primary human T-cells; [4],0 pg/mL
same,INF-α cytokine concentration,primary human T-cells; [4],5384.11 pg/mL
same,TNF-α cytokine concentration,primary human T-cells; [4],4112.99 pg/mL
same,IL-1 cytokine concentration,[1]; HaCaT stimulated with IFN-γ,0 pg/mL
same,IL-2 cytokine concentration,[1]; HaCaT stimulated with IFN-γ,0 pg/mL
same,IL-4 cytokine concentration,[1]; HaCaT stimulated with IFN-γ,0 pg/mL
same,IL-5 cytokine concentration,[1]; HaCaT stimulated with IFN-γ,0 pg/mL
same,IL-6 cytokine concentration,[1]; HaCaT stimulated with IFN-γ,224.07 pg/mL
same,IL-9 cytokine concentration,[1]; HaCaT stimulated with IFN-γ,0 pg/mL
same,IL-10 cytokine concentration,[1]; HaCaT stimulated with IFN-γ,0 pg/mL
same,IL-12p70 cytokine concentration,[1]; HaCaT stimulated with IFN-γ,0 pg/mL
same,IL-13 cytokine concentration,[1]; HaCaT stimulated with IFN-γ,0 pg/mL
same,IL-17 cytokine concentration,[1]; HaCaT stimulated with IFN-γ,13.16 pg/mL
same,IL-22 cytokine concentration,[1]; HaCaT stimulated with IFN-γ,0 pg/mL
same,TNF-α cytokine concentration,[1]; HaCaT stimulated with IFN-γ,0 pg/mL
same,IFN-γ cytokine concentration,[1]; HaCaT stimulated with PBS,0 pg/mL
same,IL-1 cytokine concentration,[1]; HaCaT stimulated with PBS,0 pg/mL
same,IL-2 cytokine concentration,[1]; HaCaT stimulated with PBS,18.85 pg/mL
same,IL-4 cytokine concentration,[1]; HaCaT stimulated with PBS,109.04 pg/mL
same,IL-5 cytokine concentration,[1]; HaCaT stimulated with PBS,0 pg/mL
same,IL-6 cytokine concentration,[1]; HaCaT stimulated with PBS,80.55 pg/mL
same,IL-9 cytokine concentration,[1]; HaCaT stimulated with PBS,2.87 pg/mL
same,IL-10 cytokine concentration,[1]; HaCaT stimulated with PBS,61.87 pg/mL
same,IL-12p70 cytokine concentration,[1]; HaCaT stimulated with PBS,0 pg/mL
same,IL-13 cytokine concentration,[1]; HaCaT stimulated with PBS,123.68 pg/mL
same,IL-17 cytokine concentration,[1]; HaCaT stimulated with PBS,12.85 pg/mL
same,IL-22 cytokine concentration,[1]; HaCaT stimulated with PBS,0 pg/mL
same,TNF-α cytokine concentration,[1]; HaCaT stimulated with PBS,0 pg/mL
same,IFN-γ cytokine concentration,[1]; [5],39.23 pg/mL
same,IL-1 cytokine concentration,[1]; [5],0 pg/mL
same,IL-2 cytokine concentration,[1]; [5],0 pg/mL
same,IL-4 cytokine concentration,[1]; [5],0 pg/mL
same,IL-5 cytokine concentration,[1]; [5],16.77 pg/mL
same,IL-6 cytokine concentration,[1]; [5],225.53 pg/mL
same,IL-9 cytokine concentration,[1]; [5],0 pg/mL
same,IL-10 cytokine concentration,[1]; [5],97.56 pg/mL
same,IL-12p70 cytokine concentration,[1]; [5],0 pg/mL
same,IL-13 cytokine concentration,[1]; [5],0 pg/mL
same,IL-17 cytokine concentration,[1]; [5],28.83 pg/mL
same,IL-22 cytokine concentration,[1]; [5],0 pg/mL
same,TNF-α cytokine concentration,[1]; [5],3.93 pg/mL
same,IL-1 cytokine concentration,primary murine T-cells; [6],100.01 pg/mL
same,IL-2 cytokine concentration,primary murine T-cells; [6],206.76 pg/mL
same,IL-4 cytokine concentration,primary murine T-cells; [6],0 pg/mL
same,IL-5 cytokine concentration,primary murine T-cells; [6],486.86 pg/mL
same,IL-6 cytokine concentration,primary murine T-cells; [6],235.86 pg/mL
same,IL-10 cytokine concentration,primary murine T-cells; [6],1250.21 pg/mL
same,IL-13 cytokine concentration,primary murine T-cells; [6],0 pg/mL
same,IL-17 cytokine concentration,primary murine T-cells; [6],92.71 pg/mL
same,IL-21 cytokine concentration,primary murine T-cells; [6],814.33 pg/mL
same,IL-22 cytokine concentration,primary murine T-cells; [6],114.68 pg/mL
same,IL-27 cytokine concentration,primary murine T-cells; [6],138.81 pg/mL
same,TNF-α cytokine concentration,primary murine T-cells; [6],47.36 pg/mL
same,IFN-γ cytokine concentration,primary murine T-cells; [7],2456.98 pg/mL
same,IL-1 cytokine concentration,primary murine T-cells; [7],78.5 pg/mL
same,IL-2 cytokine concentration,primary murine T-cells; [7],147.3 pg/mL
same,IL-4 cytokine concentration,primary murine T-cells; [7],119.19 pg/mL
same,IL-5 cytokine concentration,primary murine T-cells; [7],377.16 pg/mL
same,IL-6 cytokine concentration,primary murine T-cells; [7],189.26 pg/mL
same,IL-10 cytokine concentration,primary murine T-cells; [7],1006.65 pg/mL
same,IL-13 cytokine concentration,primary murine T-cells; [7],0 pg/mL
same,IL-17 cytokine concentration,primary murine T-cells; [7],0 pg/mL
same,IL-21 cytokine concentration,primary murine T-cells; [7],330.42 pg/mL
same,IL-22 cytokine concentration,primary murine T-cells; [7],84.16 pg/mL
same,IL-27 cytokine concentration,primary murine T-cells; [7],329.85 pg/mL
same,TNF-α cytokine concentration,primary murine T-cells; [7],18.91 pg/mL
same,IFN-γ cytokine concentration,primary murine T-cells; [8],3234.33 pg/mL
same,IL-1 cytokine concentration,primary murine T-cells; [8],196.76 pg/mL
same,IL-2 cytokine concentration,primary murine T-cells; [8],292.52 pg/mL
same,IL-4 cytokine concentration,primary murine T-cells; [8],123.15 pg/mL
same,IL-5 cytokine concentration,primary murine T-cells; [8],465.44 pg/mL
same,IL-6 cytokine concentration,primary murine T-cells; [8],245.96 pg/mL
same,IL-10 cytokine concentration,primary murine T-cells; [8],1383.24 pg/mL
same,IL-13 cytokine concentration,primary murine T-cells; [8],0 pg/mL
same,IL-17 cytokine concentration,primary murine T-cells; [8],391.98 pg/mL
same,IL-21 cytokine concentration,primary murine T-cells; [8],987.02 pg/mL
same,IL-22 cytokine concentration,primary murine T-cells; [8],48.93 pg/mL
same,IL-27 cytokine concentration,primary murine T-cells; [8],80.01 pg/mL
same,TNF-α cytokine concentration,primary murine T-cells; [8],62.85 pg/mL
